Where “and” joins values, the source holds several entries; their conditions need not be identical. Equal entries are not always repeated. Calls of active or inactive are those of the source. No rule for the calls is given here.

This passage reports vessel count % control results from PubChem BioAssay AID732 (Emory University Molecular Libraries Screening Center, 2007).

This assay deals with in vivo angiogenesis, blood vessel count. In words: angiogenesis inhibition in living animals, in vivo study, HTS (AID 732).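 Also: zebrafish embryos dosed at one day post fertilization; 0% = reference inhibitor and 100% = plate mean.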 As to conditions: hits give low values;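 tested at 30 µM in the well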.
As for `C/C=C/CC(C)C(O)C1C(=O)NC(CC)C(=O)N(C)CC(=O)N(C)C(CC(C)C)C(=O)NC(C(C)C)C(=O)N(C)C(CC(C)C)C(=O)NC(C)C(=O)NC(C)C(=O)N(C)C(CC(C)C)C(=O)N(C)C(CC(C)C)C(=O)N(C)C(C(C)C)C(=O)N1C` (stereo not drawn), the vessel count % control was 108% (inactive).

Consider `O=C(O)CCC(C(=O)O)N1C(=O)c2ccccc2C1=O` (stereo not drawn), for which the vessel count % control is 105% (inactive).

Take `OC[C@H]1O[C@@H](n2cnc3c(NC4CCCCC4)ncnc32)[C@H](O)[C@@H]1O`: the vessel count % control was 104% (inactive).

Take `Clc1ccc2c(c1)C(N1CCNCC1)=Nc1ccccc1O2`: the vessel count % control was 98.2% (inactive).

As to `CCCN(CCC)CCc1ccc(O)c(O)c1`, the vessel count % control was 86.9% (inactive).

Regarding `CC(C)(C)c1o[nH]c(=O)c1CC(N)C(=O)O` (stereo not drawn), the vessel count % control is 106% (inactive).

With `Cc1oncc1C(=O)Nc1ccc(C(F)(F)F)cc1`, the vessel count % control was 81.6% (inactive).

For the compound `CN1C2CCC1CC(OC(c1ccccc1)c1ccc(Cl)cc1)C2` (stereo not drawn), the vessel count % control was 98.7% (inactive).

In the case of `CSc1nc(N)c2ncn([C@@H]3O[C@H](COP(=O)(O)OP(=O)(O)O)[C@H](O)C3O)c2n1` (stereo partly drawn), the vessel count % control is 83.5% (inactive).

Regarding `CC(C)NC[C@H](O)c1ccc(O)c(O)c1`, the vessel count % control was 98.1% (inactive) and 72.7% (inactive).

Regarding `Fc1ccc(C(OCCCc2cnc[nH]2)c2ccc(F)cc2)cc1`, the vessel count % control is 89.2% (inactive).

As to `O=C(O)c1cc(=O)c2ccccc2[nH]1`, the vessel count % control was 97.4% (inactive).

Consider `CC(C)NC[C@H](O)COc1cccc2ccccc12`, for which the vessel count % control was 94.9% (inactive).

In the case of `COc1ccccc1N1CCN(CCN2C(=O)CC3(CCCC3)CC2=O)CC1`, the vessel count % control was 89.5% (inactive).

As to `CC(C)NP(=O)(NC(C)C)OP(=O)(NC(C)C)NC(C)C`, the vessel count % control was 117% (inactive).

Consider `CC(C)(CO)Cc1cc(C(C)(C)C)c(O)c(C(C)(C)C)c1`, for which the vessel count % control was 105% (inactive).

As to `Cn1c(=O)[nH]c2ncn(C)c2c1=O`, the vessel count % control was 95.7% (inactive).

With `COc1cc2nc(N3CCN(C(=O)c4ccco4)CC3)nc(N)c2cc1OC`, the vessel count % control was 107% (inactive).

As to `COC1(C2=NCCN2)COc2ccccc2O1` (stereo not drawn), the vessel count % control is 121% (inactive).

As for `CCCN(CCC)C1CCc2cccc(O)c2C1` (stereo not drawn), the vessel count % control was 111% (inactive).

For `C=CCN1CCc2cccc3c2[C@H]1Cc1ccc(O)c(O)c1-3`, the vessel count % control was 113% (inactive).

`Cc1cc(C)c(/C=C2\C(=O)Nc3ccccc32)[nH]1`: the vessel count % control was 0% (inactive).

In the case of `CN1C[C@H](CNC(=O)OCc2ccccc2)C[C@@H]2c3cccc4c3c(cn4C)C[C@H]21`, the vessel count % control is 111% (inactive).

Take `CC(N)C(=O)OC(C)(C)Cc1ccc(Cl)cc1` (stereo not drawn): the vessel count % control is 112% (inactive).

`NCCS`: the vessel count % control is 106% (inactive).

On to `C[N+]1(C)CCC(OC(=O)C(c2ccccc2)c2ccccc2)CC1`, for which the vessel count % control was 91.5% (inactive).

As to `CCCN(CCC)C1CCc2ccc(O)cc2C1` (stereo not drawn), the vessel count % control was 87.6% (inactive).

For the compound `NCCCNCCSP(=O)(O)O`, the vessel count % control was 93.3% (inactive).

For `NC(CCCCCP(=O)(O)O)C(=O)O` (stereo not drawn), the vessel count % control is 113% (inactive).

Turning to `CN1CCN(CC(=O)N2c3ccccc3C(=O)Nc3cccnc32)CC1`, the vessel count % control was 95.1% (inactive).

Regarding `CN(C)C(=O)Oc1ccc[n+](C)c1`, the vessel count % control was 110% (inactive).

In the case of `c1ccc2c(N3CCNCC3)cccc2c1`, the vessel count % control was 97.1% (inactive).

As to `CN1CCC(c2c[nH]c3ccc(O)cc23)CC1`, the vessel count % control was 95.9% (inactive).

With `CCNC(=O)N1CCN(CCCC(c2ccc(F)cc2)c2ccc(F)cc2)CC1`, the vessel count % control was 83.9% (inactive).

In the case of `Cn1cnc2c1c(=O)[nH]c(=O)n2C`, the vessel count % control was 118% (inactive).

For `COc1ccccc1N1CCN(CCCCNS(=O)(=O)c2cccc3c(N(C)C)cccc23)CC1`, the vessel count % control was 67.5% (inactive).

Turning to `COc1cc(C(O)CO)ccc1O` (stereo not drawn), the vessel count % control is 96.8% (inactive).

For `Nc1ncnc2c1ncn2[C@@H]1O[C@H](COP(=O)(O)CP(=O)(O)OP(=O)(O)O)[C@H](O)C1O` (stereo partly drawn), the vessel count % control is 95.1% (inactive).

As for `C[N+](C)(C)CC(=O)O`, the vessel count % control is 94% (inactive).

With `O=C1C(c2c(O)[nH]c3ccc(S(=O)(=O)O)cc23)=Nc2ccccc21`, the vessel count % control is 101% (inactive).

As to `Cc1ccccc1N1CCN(S(=O)(=O)C[C@]23CCC(CC2NC(=O)[C@@H](N)CCS(C)(=O)=O)C3(C)C)CC1` (stereo partly drawn), the vessel count % control is 107% (inactive).

On to `CCN(CC)CCCCCCCCOC(=O)c1cc(OC)c(OC)c(OC)c1`, for which the vessel count % control was 91.4% (inactive).

For `N[C@H](CCC(=O)NCS(=O)(=O)O)C(=O)O`, the vessel count % control is 102% (inactive).

On to `CCCCCC(O)CCCC(=O)O` (stereo not drawn), for which the vessel count % control was 101% (inactive).

Consider `CC12CCC3C(CCC4=C(O)C(=O)CCC43C)C1CCC2=O` (stereo not drawn), for which the vessel count % control is 109% (inactive).

Regarding `O=NN(CCCl)C(=O)NCCCl`, the vessel count % control was 96.9% (inactive).

On to `C#CCN[C@H](C)Cc1ccccc1`, for which the vessel count % control was 114% (inactive).

Take `CC(C)(O)[C@@H]1[C@H]2OC(=O)[C@@H]1[C@]1(O)C[C@H]3O[C@]34C(=O)O[C@H]2[C@]14C` (tested in a mixture with another compound): the vessel count % control is 116% (inactive).

In the case of `COC(=O)C1=CCCN(C)C1`, the vessel count % control is 66% (inactive).

As to `C/C(O)=C(\C#N)C(=O)Nc1cc(Br)ccc1Br`, the vessel count % control was 139% (inactive).

On to `CC(C)NC(C)Cc1ccc(I)cc1` (stereo not drawn), for which the vessel count % control is 109% (inactive).

Take `Cc1cccc(C(=O)NCN2CCN(c3ccccc3C#N)CC2)c1`: the vessel count % control was 110% (inactive).

Consider `NC[C@@H]1O[C@H](C23CC4CC(CC(C4)C2)C3)Cc2c1ccc(O)c2O`, for which the vessel count % control is 110% (inactive).

Regarding `CCN1CCc2nc(N)oc2CC1`, the vessel count % control is 96.4% (inactive).

For the compound `CN(N=O)c1ccc(O)c(O)c1`, the vessel count % control is 96.8% (inactive).

Consider `COc1cc2c(cc1O)CC[C@@H]1[C@@H]2CC[C@]2(C)[C@@H](O)CC[C@@H]12`, for which the vessel count % control was 83.1% (inactive).

In the case of `O=Nc1c(-c2c(O)[nH]c3ccccc23)[nH]c2ccccc12`, the vessel count % control was 15.6%.

For the compound `O=C1c2ccccc2-c2n[nH]c3cccc1c23`, the vessel count % control was 107% (inactive).

Turning to `C=C(C)[C@H]1CN[C@H](C(=O)O)[C@H]1CC(=O)O`, the vessel count % control is 123% (inactive).

Regarding `CC1=C(CC(=O)O)c2cc(F)ccc2/C1=C\c1ccc(S(C)(=O)=O)cc1`, the vessel count % control was 112% (inactive).

For `N=C(N)SCCc1ccc(CCSC(=N)N)cc1`, the vessel count % control is 72.6% (inactive).

As for `CC[C@H]1CN2CCc3cc(OC)c(OC)cc3[C@@H]2C[C@@H]1C[C@H]1NCCc2cc(OC)c(OC)cc21`, the vessel count % control was 103% (inactive).

Take `O=C1C(c2c(O)[nH]c3c(Cl)ccc(Cl)c23)=Nc2ccc(Br)cc21`: the vessel count % control was 121% (inactive).
